Measurements: US11814382B2 (FUJIAN COSUNTER PHARMACEUTICAL CO., LTD., priority 2018, dated 2023)

What was measured:
[1] = Solid stability test of crystal form A (high temperature, high humidity, strong light); format: physicochemical
Excerpt: The samples were respectively placed in a high-temperature, high-humidity and strong-light storage container. The samples were taken at 5 and 10 days after placing, and the test results were compared with the initial test results at 0 days.

[2] = system: MCD-induced mouse NASH model; test: In vivo efficacy test in MCD-induced mouse NASH model; parameters: species or system C57BL/6 male mice; conditions: dosing from week 5 of 8 weeks MCD feed, vs. model group (FIG. 13)
Description: SPF grade C57BL/6 male mice, 22-25 grams in weight.
MCD: methionine/choline deficient feed.
Liver Propylene Analytical Reagents: hematoxylin dyeing liquid, eosin dyeing liquid and Picro sirius dyeing liquid.
After the animals were adapted for one week in the facility, the normal control group was still fed with the normal feed, and other animals were fed with MCD feed instead. The drinking water didn't change and the feed was replaced once every 48 hours. Beginning at week 5, the remaining groups, except the normal control and model groups, were administrated with subject compound. The Experiment lasted for a total of 8 weeks. At the end of the experiment, animal liver samples were collected for histopathological analysis.

[3] = system: CCl4-induced mouse liver fibrosis model; test: In vivo efficacy test in CCl4-induced mouse liver fibrosis model; parameters: species or system Male C57BL/6 mice; conditions: oral gavage, day 1 to day 28 of CCl4 modeling, vs. model group (FIG. 14)
Description: Male C57BL/6 mice, 22-27 grams in weight, purchased from Shanghai Lingchang Biotechnology Co., Ltd.
Mice were transferred to the experimental area after one week of quarantine and adaptation. Animals were randomly divided into groups according to body weight and housed in cages at 5 mice per cage. 20% CCl4 solution with CCl4: Olive oil=1:4 was prepared by dissolving CCl4 in olive oil at a dose of 0.5 μl/g in mice. The mice of model group were orally three times a week for 4 weeks for molding, and the mice of normal control group was administrated only with the same volume of olive oil orally. The subject compounds were administered orally by oral gavage in a volume of 10 ml/kg per animal. The Day 1 of CCl4 modeling was initiated while dosing was initiated until day 28. At the end of the experiment, animal liver samples were collected for histopathological analysis.

Crystal form ([1]; High Humidity (25° C./Relative Humidity 90%, Open), Day 5): Crystal form A
Crystal form ([1]; High Humidity (25° C./Relative Humidity 90%, Open), Day 10): Crystal form A
Crystal form ([1]; High Temperature (60° C., Open), Day 5): Crystal form A
Crystal form ([1]; High Temperature (60° C., Open), Day 10): Crystal form A
Crystal form ([1]; Strong light (5000 lx, closed), Day 5): Crystal form A
Crystal form ([1]; Strong light (5000 lx, closed), Day 10): Crystal form A
Solid stability (conclusion) ([1]; high temperature, high humidity and strong light): good stability
Crystal form ([1]; initial, Day 0): Crystal form A
Compound: Cc1cc(F)c(C(=O)Nc2cccc(-c3nnc4n3CCCC4)n2)cc1-n1cnc(C2CC2)c1 [Crystal form A]
Effect on liver fibrosis (liver histopathology) ([2]; 6 mg/Kg BID): significant effect on improving liver fibrosis
Effect on liver fibrosis (liver histopathology) ([2]; 60 mg/Kg BID): significant effect on improving liver fibrosis
Effect on liver fibrosis (liver histopathology) ([3]; 3 mg/Kg BID): significant effect on improving liver fibrosis
Effect on liver fibrosis (liver histopathology) ([3]; 30 mg/Kg BID): significant effect on improving liver fibrosis
